# Test results published in patent publication US20260216152A1, “Combinations Comprising Benzodioxol as GLP-1R Agonists for Use in the Treatment of NASH/NAFLD and Related Diseases” (Pfizer Inc., priority 2019, published 2026).
# Tests used:
# human ACC isozymes = experiment: Inhibition of human ACC isozymes, incorporation of [14C]-carbonate into [14C]-malonyl-CoA; type: biochemical; conditions: saturating concentrations of ATP
# rat ACC isozymes = experiment: Inhibition of rat ACC isozymes, incorporation of [14C]-carbonate into [14C]-malonyl-CoA; type: biochemical; conditions: saturating concentrations of ATP
# liver malonyl-CoA = experiment: Liver malonyl-CoA in rats; type: in vivo
# [1] = Western diet fed Sprague Dawley rats, ACCi and DGAT2i as monotherapy and in combination (FIG. 10-18); type: in vivo
# Text: (§1) It appears that the administration of an ACC inhibitor may have positive effects to lower hepatic TGs and potentially other beneficial effects on treatment of NASH.
# [2] = Circulating TGs in human subjects; type: in vivo
# Text: as §1
# hepatic DNL = conditions: Phase 1 study, healthy adult subjects; cited from earlier work
# in vivo [3] = conditions: rat
# in vivo [4] = conditions: monkey
# [5] = target: T1, recombinant human DGAT1 (hDGAT1) (Homo sapiens, UniProt O75907); experiment: Selectivity by biochemical assessment versus hDGAT1; conditions: in vitro
# T1 sequence (O75907 1-488): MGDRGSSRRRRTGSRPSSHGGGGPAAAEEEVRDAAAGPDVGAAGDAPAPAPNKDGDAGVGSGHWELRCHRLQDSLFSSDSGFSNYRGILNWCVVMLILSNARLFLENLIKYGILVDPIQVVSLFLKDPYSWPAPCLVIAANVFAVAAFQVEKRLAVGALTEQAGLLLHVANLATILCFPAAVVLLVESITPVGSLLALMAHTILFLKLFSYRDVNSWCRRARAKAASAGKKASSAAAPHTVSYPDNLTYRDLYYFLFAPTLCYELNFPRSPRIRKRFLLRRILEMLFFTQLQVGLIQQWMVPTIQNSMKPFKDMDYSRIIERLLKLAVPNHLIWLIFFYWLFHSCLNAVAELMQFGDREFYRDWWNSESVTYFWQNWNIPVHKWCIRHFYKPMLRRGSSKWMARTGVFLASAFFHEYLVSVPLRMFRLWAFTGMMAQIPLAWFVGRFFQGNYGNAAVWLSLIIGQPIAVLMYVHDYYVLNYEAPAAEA
# Text: (§2) (S)-2-(5-((3-ethoxypyridin-2-yl)oxy)pyridin-3-yl)-N-(tetrahydrofuran-3-yl)pyrimidine-5-carboxamide is an oral, small molecule DGAT2 inhibitor that is postulated to decrease hepatic triglyceride (TG) synthesis and hepatic lipid burden in NAFLD and NASH.
# [6] = target: monoacylglycerol acyltransferase 2 (MGAT2) (Homo sapiens, UniProt Q3SYC2); experiment: Selectivity by biochemical assessment versus MGAT2; conditions: in vitro
# Chain of monoacylglycerol acyltransferase 2 (MGAT2) (Q3SYC2 whole entry): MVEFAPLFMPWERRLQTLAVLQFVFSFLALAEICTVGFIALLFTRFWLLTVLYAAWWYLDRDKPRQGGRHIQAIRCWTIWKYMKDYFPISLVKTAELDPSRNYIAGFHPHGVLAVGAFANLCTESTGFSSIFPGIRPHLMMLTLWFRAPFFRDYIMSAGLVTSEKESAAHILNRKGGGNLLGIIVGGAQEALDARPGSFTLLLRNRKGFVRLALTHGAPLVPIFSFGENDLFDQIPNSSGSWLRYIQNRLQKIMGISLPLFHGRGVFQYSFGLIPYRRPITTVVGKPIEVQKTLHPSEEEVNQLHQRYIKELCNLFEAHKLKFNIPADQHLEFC
# Text: as §2
# MGAT3 = target: T2, MGAT3 (Homo sapiens, UniProt Q86VF5); experiment: Selectivity by biochemical assessment versus MGAT3; conditions: in vitro
# T2 sequence (Q86VF5 1-341): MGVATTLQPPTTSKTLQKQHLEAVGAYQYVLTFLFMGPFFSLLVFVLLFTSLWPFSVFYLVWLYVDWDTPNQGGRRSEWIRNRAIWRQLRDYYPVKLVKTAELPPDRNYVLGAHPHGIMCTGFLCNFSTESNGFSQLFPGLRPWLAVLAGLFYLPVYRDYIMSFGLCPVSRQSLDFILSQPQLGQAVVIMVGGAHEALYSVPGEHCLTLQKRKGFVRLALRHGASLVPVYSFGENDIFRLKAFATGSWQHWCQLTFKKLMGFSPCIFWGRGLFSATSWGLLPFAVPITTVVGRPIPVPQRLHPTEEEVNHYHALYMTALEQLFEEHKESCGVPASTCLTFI
# Text: as §2
# mouse MGAT1 = target: T3, mouse MGAT1 (Mus musculus, UniProt Q91ZV4); experiment: Selectivity by biochemical assessment versus mouse MGAT1; conditions: in vitro
# T3 sequence (Q91ZV4 1-335): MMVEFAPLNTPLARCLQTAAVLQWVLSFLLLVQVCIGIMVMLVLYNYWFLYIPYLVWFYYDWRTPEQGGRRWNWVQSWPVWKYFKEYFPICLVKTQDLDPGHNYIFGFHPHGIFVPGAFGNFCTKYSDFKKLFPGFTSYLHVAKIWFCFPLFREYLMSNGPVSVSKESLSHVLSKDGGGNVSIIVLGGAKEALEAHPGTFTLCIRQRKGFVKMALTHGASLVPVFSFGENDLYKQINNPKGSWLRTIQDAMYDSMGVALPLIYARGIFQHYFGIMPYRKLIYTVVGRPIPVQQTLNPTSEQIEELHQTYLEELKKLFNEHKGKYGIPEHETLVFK
# Text: as §2
# [7] = Plasma triacylglycerol in rats fed a sucrose-diet; type: in vivo
# Text: as §2
# [8] = Longer-term studies in western diet fed rats; type: in vivo
# Text: as §2
# [9] = tested on: fructose-induced steatosis; experiment: Dietary fructose-feeding model with Sprague Dawley rats; type: in vivo
# Text: [(1R,5S,6R)-3-{2-[(2S)-2-methylazetidin-1-yl]-6-(trifluoromethyl)pyrimidin-4-yl}-3-azabicyclo[3.1.0]hex-6-yl]acetic acid is a potent reversible inhibitor of human KHK-C The fructose, not glucose, component of dietary sugar is unique in its ability to promote features of metabolic syndrome, including steatosis, insulin resistance, and obesity.
# [10] = Thermodynamic stability of crystal forms versus water activity; type: physicochemical; conditions: ambient temperature; 0.2 = 20% RH
# Description: Form 1 of Example ACCi is anhydrous and is thermodynamically stable below a water activity of about 0.2 (20% RH) at ambient temperature. Characteristic PXRD peaks of Form 1 of Example ACCi, expressed as 2θ+0.2° 2θ are at 9.6, 10.7, and 11.3.
# Form 2 of Example ACCi is a trihydrate and is thermodynamically stable above a water activity of about 0.2 at ambient temperature and 20% RH. Characteristic PXRD peaks of Form 2 of Example ACCi, expressed as 2θ+0.2° 2θ are at 8.4, 9.0, 10.5, 15.0, and 24.7.
# circulating FGF19 = experiment: Circulating FGF19 levels after single and multiple doses; type: in vivo
# Text: Pharmacological activation of […] has been proposed as a target for the treatment of NASH (Cariou 2008, Porez et al 2012). […] The nuclear receptor FXR, also known as the Bile Acid Receptor (BAR; NR1H4), is responsible for modulating bile acid production, conjugation, and elimination.
smiles,measurement,setting,value
"COc1cc(C(=O)N2CCC3(CC2)CC(=O)c2c(cnn2C(C)C)C3)cc(-c2ccc(C(=O)O)cc2)n1 [Example ACCi, 4-(4-(1-isopropyl-7-oxo-1,4,6,7-tetrahydrospiro[indazole-5,4′-piperidine]-1′-carbonyl)-6-methoxypyridin-2-yl)benzoic Acid]",inhibition of incorporation of [14C]-carbonate into [14C]-malonyl-CoA,human ACC isozymes,inhibited incorporation of [^14C]-carbonate into [^14C]-malonyl-CoA in a concentration-dependent manner
same,inhibition of incorporation of [14C]-carbonate into [14C]-malonyl-CoA,rat ACC isozymes,inhibited incorporation of [^14C]-carbonate into [^14C]-malonyl-CoA in a concentration-dependent manner
same,liver malonyl-CoA,liver malonyl-CoA,dose and free plasma concentration-dependent reductions in liver malonyl-CoA
same,circulating TGs (generally measured from plasma),[1],elevations in circulating TGs
same,circulating TGs,[2],elevations in circulating TGs
same,hepatic DNL,hepatic DNL,suppress hepatic DNL
same,Kp,in vivo [3],≥ 100
same,Kp,in vivo [4],≥ 100
"CCOc1cccnc1Oc1cncc(-c2ncc(C(=O)N[C@H]3CCOC3)cn2)c1 [Example DGAT2i, (S)-2-(5-((3-ethoxypyridin-2-yl)oxy)pyridin-3-yl)-N-(tetrahydrofuran-3-yl)pyrimidine-5-carboxamide]",selectivity versus hDGAT1,[5],> 2000 fold
same,selectivity versus MGAT2,[6],> 2000 fold
same,selectivity versus MGAT3,MGAT3,> 2000 fold
same,selectivity versus mouse MGAT1,mouse MGAT1,> 2000 fold
same,plasma triacylglycerol,[7],"robust, dose-dependent reduction of plasma triacylglycerol"
same,hepatic lipid accumulation,[8],reduced
same,plasma triacylglycerol,[8],reduced
"C[C@H]1CCN1c1nc(N2C[C@@H]3[C@@H](CC(=O)O)[C@@H]3C2)cc(C(F)(F)F)n1 [Example KHKi, [(1R,5S,6R)-3-{2-[(2S)-2-methylazetidin-1-yl]-6-(trifluoromethyl)pyrimidin-4-yl}-3-azabicyclo[3.1.0]hex-6-yl]Acetic acid]",incidence of fructose-induced steatosis,[9],reduced the incidence of fructose-induced steatosis
COc1cc(C(=O)N2CCC3(CC2)CC(=O)c2c(cnn2C(C)C)C3)cc(-c2ccc(C(=O)O)cc2)n1 [Form 1 of Example ACCi],water activity at which the form is thermodynamically stable,[10],< 0.2
COc1cc(C(=O)N2CCC3(CC2)CC(=O)c2c(cnn2C(C)C)C3)cc(-c2ccc(C(=O)O)cc2)n1 [Form 2 of Example ACCi],water activity at which the form is thermodynamically stable,[10],> 0.2
"O=C(O)c1cc(F)c2nc(N3C4CC[C@H]3CC(OCc3c(-c5ccccc5OC(F)(F)F)noc3C3CC3)C4)sc2c1 (stereo partly drawn) [Tropifexor, 2-[(1R,3R,5S)-3-({5-cyclopropyl-3-[2-(trifluoromethoxy)phenyl]-1,2-oxazol-4-yl}methoxy)-8-azabicyclo[3.2.1]octan-8-yl]-4-fluoro-1,3-benzothiazole-6-carboxylic acid]",circulating FGF19 levels,circulating FGF19,"robust, dose-dependent increase in circulating FGF19 levels"
